Data: paper PMC2816717, “Active Fragments from Pro- and Antiapoptotic BCL-2 Proteins Have Distinct Membrane Behavior Reflecting Their Functional Divergence” (PLoS ONE, 2010)

Key:
isolated mitochondria = assay: Cytochrome c release assay, source of mitochondria not stated; assay type: biochemical; settings: for effect on isolated mitochondria, in words: summary in Discussion
Experimental: (§1) Figure 7 Cytochrome c release assays. Peptides were incubated with isolated mitochondria for the indicated times (min) and the release of cytochrome c was monitored by Western blotting (IB). MitoHSP70 was used as an equal-loading control for the pellet fraction. Control lanes indicate that in the preparation the MOM is intact and cytochrome c is retained within the intermembrane space. A. Cytochrome c release assays for the first (BAX-α5S, BCLX-α5S, BID-α6) and second helices (BAX-α6, BCLX-α6, BID-α7) of the ‘pore domain’ of BAX, BCL-xL and BID using mitochondria isolated from HEK293T cells. B. Cytochrome c release assays for BAX-α5M and BAX-α5MS using mitochondria isolated from MEF and MEK BAX/BAK -/- double knock-out cells (MEF DKO). C. Cytochrome c release assays for the BH3 peptides.
Last, we proceeded to perform similar dose-response experiments by measuring cytochrome c release from isolated mitochondria with peptides derived from the BH3 domains of BAX, BID and BCL-xL. […] On the other hand, the BH3 peptides from BAX and BID triggered mitochondrial cytochrome c release, although with markedly less efficiency (starting at 25 µM after 15–30 min of peptide exposure) than BAX-α5, BAX-α6 or BID-α6.
(§2) Crude mitochondria were prepared from HEK 293T, mouse embryo fibroblast (MEF) or BAX/BAK double knockout MEF cells (MEF-DKO). In brief, cells were mechanically broken using a 2 ml glass/glass Dounce homogenizer (Kontes) (30 strokes). Homogenates were cleared at 1500 g and mitochondria were spun down at 10 000 g. For cytochrome c release assays, 30 µg of crude mitochondria were resuspended at 1 mg/ml in KCl buffer supplemented with succinate (5 mM) and EGTA (0.5 mM). Peptides (2.5, 10 or 25 µM) were added to the samples and incubations were carried out at 30°C under agitation (300 rpm). At the indicated time points, samples were centrifuged (5 min, 10 000 g, 4°C); supernatants and pellets were recovered and analyzed by immunoblotting for Cytochrome c and mitoHsp70.

[1] = Langmuir monolayer penetration assay, lipid mixture not singled out (Figure 5); assay type: physicochemical; settings: πi 5 mN/m; for final increase of surface pressure πmax (insertion), in words: Figure 5A; for final increase of surface pressure πmax (insertion), in words / initial velocity of surface pressure increase Vi (affinity), in words: peptide 0.2 µM, Hepes pH 7.4, duplicate; for initial velocity of surface pressure increase Vi (affinity), in words: Figure 5B
Text: (§3) For the biophysical characterization of membrane active protein fragments, we have used Langmuir monolayers as in vitro model of lipid membranes. These supramolecular lipid films formed at the air-water interface are attractive membrane models, widely used for studying peptide-lipid interactions, [56], [57]. We have investigated the binding of peptides derived from the central helices of BAX, BCL-xL and BID at physiological pH with model phospholipid monolayers of a composition that imitates mitochondrial membranes. For this purpose we selected fragments encompassing the sequences corresponding to the first or second α-helices of the core hairpins of BAX, BCL-xL and BID, as defined in the water-soluble protein structures, [17], [19]. Because the structures of those proteins in a membrane environment is currently unavailable, for the case of the first hairpin helix of BAX and BCL-xL (α5) we analyzed both a short version (labeled “S”), including only the reported α-helical residues, and a long version (labeled “L”) that extends a few residues beyond the α-helix stretch at both ends. Divergence of the BID sequence precluded unambiguous alignment with the other two proteins and a similar peptide design. Peptides corresponding to the BH3 domain of BAX, BCL-xL and BID were also included in the study. The sequence and some general properties of the peptides analyzed in this study are described in Table 1 and Figure 1). Lipid mixtures of POPC/DOPE (2∶1) and POPC/DOPE/CL (1∶1∶1) were chosen to mimic the MOM and the contact sites between inner and outer mitochondrial membrane (MIM/MOM), respectively. Penetration assays were carried out at constant area by spreading the lipids at the air-buffer interface, compressing the film at πi = […] and then injecting the peptides into the subphase at a concentration of 0.2 µM (see Material and Methods). Subsequent peptide binding results typically in an increase of surface pressure. Thus, the peptide-monolayer interaction can be characterized by measurable kinetic properties, such as the initial velocity of surface pressure increase (Vi), which informs about the affinity of the peptide for the lipid-water interface, and the final increase of surface pressure (πmax), which can be related to the insertion ability of the peptide into the monolayer.
Figure 5 Changes in surface pressure after peptide injection. Peptides were injected underneath POPC/DOPE or POPC/DOPE/CL monolayers at constant area. A. Final increase of surface pressure πmax (mN/m) obtained for the different peptides. The dashed line denotes the threshold (Δπ = 4.8 mN/m) for significant surface pressure variation as determined using BAX-α5S without lipids (see text). B. Initial velocity of surface pressure increase (Vi = Δπ/s).
(§4) Monolayer experiments were performed on a computer-controlled Langmuir film balance (KSV 2000, three multi-compartment system, KSV Instrument Ltd., Finland) working in a symmetrical compression mode and enclosed in an opaque cabinet. The rectangular trough (V = 85 mL ±1 mL, S = 119.25 cm^2) was made of Teflon and the mobile barriers were made in Delrin. The surface pressure, π defined as γ0 – γ, where γ0 is the surface tension of the pure aqueous subphase and γ the surface tension exerted by phospholipids at the subphase surface, was measured by the Wilhelmy's method using a platinum plate with an accuracy of ±0.05 mN/m. The trough was filled with Hepes buffer (pH 7.4), used as subphase and thermostated with a water circulating bath (Lauda E100, LAUDA France, SARL). In all experiments, the subphase temperature was maintained at a constant value of 22.5±0.5°C.
Phospholipid monolayers were formed by deposition of 14 µl of spreading solutions at a clean air/buffer interface by means of a micropipette to reach a final amount of 14 nmol of phospholipids. […]

[2] = test system: mitochondria isolated from HEK293T cells; assay: Cytochrome c release assay; assay type: biochemical
Experimental: Thus, we tested the ability of the different peptides to induce the release of mitochondrial proteins by incubating them with mitochondria isolated from HEK293T cells, and subsequently assaying the supernatant and pelleted fractions with antibodies for cytochrome c and mitoHSP70. […] On the other hand, incubation of mitochondria with 10 µM BID-α6 induced a slower release, with depletion of the mitochondrial pool of cytochrome c occurring only after 1 hour incubation.
as §1, §2

[3] = Langmuir monolayer penetration assay at constant area; assay type: physicochemical; settings: control peptides, Figure S2 legend; unit not given (Δπ elsewhere in mN/m); conditions as Fig. 5: πi 5 mN/m, 0.2 µM
Text: as §3, §4
Phospholipid monolayers were formed by deposition of 14 µl of spreading solutions at a clean air/buffer interface by means of a micropipette to reach a final amount of 14 nmol of phospholipids. After complete evaporation of the solvent (∼15 min), the monolayer was slowly compressed up to a defined lateral pressure (initial surface pressure πi) at a rate of 0.045 nm^2 molecule^−1 min^−1. The value of πi = 5 mN/m was chosen because it lies between the surface pressure set-off and surface pressures (e.g. 30 mN/m, which corresponds to a tightly packed film) where many peptides of the study will not insert. […]

[4] = test system: mitochondria isolated from BAX/BAK double knockout mouse embryonic fibroblasts (MEF DKO); assay: Cytochrome c release assay; assay type: biochemical; settings: Figure 7B
Experimental: as §1
Crude mitochondria were prepared from HEK 293T, mouse embryo fibroblast (MEF) or BAX/BAK double knockout MEF cells (MEF-DKO). In brief, cells were mechanically broken using a 2 ml glass/glass Dounce homogenizer (Kontes) (30 strokes). Homogenates were cleared at 1500 g and mitochondria were spun down at 10 000 g. […] At the indicated time points, samples were centrifuged (5 min, 10 000 g, 4°C); supernatants and pellets were recovered and analyzed by immunoblotting for Cytochrome c and mitoHsp70.

[5] = long versus short α5 peptide, 0.2 µM
[6] = 10 µM peptide, 5 min incubation, 30°C, Western blot of supernatant and pellet
[7] = only at the highest concentration assayed, 25 µM, 5 min

Q: With “AREVIPMAAVKQALREAGDEFELRYRRAF [BCLX-BH3, peptide corresponding to the BH3 domain of BCL-xL]” as the sequence, how does the “cytochrome c release, in words” value (isolated mitochondria; BH3 peptides, dose-response, Figure 7C) read?
A: no cytochrome c release

Q: What about the “effect on isolated mitochondria, in words” value (from here on “effect”) (isolated mitochondria) of the same sequence?
A: lack of effect

Q: For “DGNFNWGRVVALFYFASKLVLKALSTKVPELIRT [BAX-α5L, long version of BAX helix α5, extended at both ends]”, which “final increase of surface pressure πmax (insertion), in words” value (“final increase of surface pressure πmax” for short) [1] is on record?
A: much lower value

Q: What about the “surface pressure compared to BAX-α5S” value [1, 5] of the same sequence?
A: about half

Q: What about the “cytochrome c release, in words” value [2, 6] of the same sequence?
A: some residual cytochrome c was still present in the mitochondrial pellet

Q: For “EKEKTMLVLALLLAKKVASH [BID-α6, first helix (α6) of the central hairpin of BID]”, which “final increase of surface pressure πmax” value [1] is on record?
A: higher than the one of the BH3 peptides

Q: And the “incubation time at which the mitochondrial pool of cytochrome c is depleted” value ([2]; 10 µM peptide, 30°C, Western blot)?
A: 1 h

Q: What does the source list for “ELIRTIMGWTLDFLRERLLVWIQD [BAX-α6, second helix (α6) of the central hairpin of BAX]”?
A: final increase of surface pressure πmax (insertion), in words [1]: highest increases in surface pressure; cytochrome c release, in words [2, 6]: complete depletion of all mitochondrial cytochrome c

Q: What does the source list for “EQIMKTGAFLLQGFIQDRAGRW [BAX-α1, control peptide, first helix localized at the N-terminus of BAX, reference compound]”?
A: Δπ in POPC/DOPE monolayers [3]: 4; Δπ in POPC/DOPE/CL monolayers [3]: 3.4

Q: Which results are given for “ESQEDIIRNIARHLAQVGDSMDRSIPPGL [BID-BH3, peptide corresponding to the BH3 domain of BID]”?
A: initial velocity of surface pressure increase Vi (affinity), in words [1]: strong; concentration at which cytochrome c release starts (isolated mitochondria; BH3 peptides, Figure 7C): 25 µM

Q: Which “initial velocity of surface pressure increase Vi (affinity), in words” value [1] does the source give for NWGRVVALFYFASKLVLKALSTKVPELIR [BAX-α5M] here?
A: slightly smaller

Q: And the “cytochrome c release, in words” value ([4]; mitochondria from MEF DKO)?
A: Cytochrome c release also occurred

Q: What does the source list for “NWGVVKALFYFASVLRLKALSTKVPELIR [BAX-α5MS]”?
A: final increase of surface pressure πmax (insertion), in words [1]: reduced surface pressure compared to BAX-α5M; kinetics of cytochrome c release, in words ([4]; mitochondria from MEF and MEF DKO, relative to BAX-α5M): increased lag time and a decreased rate of cytochrome c release

Q: With “RDGVNWGRIVAFFSFGGALSVESVDKEMQVLVSR [BCLX-α5L, long version of helix α5 of BCL-xL]” as the sequence, how does the “final increase of surface pressure πmax” value [1] read?
A: higher than the one of the BH3 peptides

Q: And the “increase in surface pressure compared to BCLX-α5S” value [1, 5]?
A: ~5 fold

Q: And the “cytochrome c release, in words” value [2, 7]?
A: release of large amounts of cytochrome c

Q: With “SLLRDVFHTTVNFINQANLRTYVR [BID-α7, second helix (α7) of the central hairpin of BID]” as the sequence, how does the “final increase of surface pressure πmax” value [1] read?
A: lowest increase of surface pressure

Q: What about the “effect” value (isolated mitochondria) of the same sequence?
A: lack of effect

Q: Which “Δπ in POPC/DOPE monolayers” value [3] does the source give for “TARWKKWGFQPRLKEQEGDVARDSQR [BCL2L10-LAAS, control peptide, connecting region between predicted α5-α6 helices of BCL2L10 (Long Amino Acid Stretch), reference compound]” here?
A: 3.4

Q: What about the “Δπ in POPC/DOPE/CL monolayers” value [3] of the same sequence?
A: 5.5

Q: For “VLVSRIAAWMATYLNDHLEPWIQE [BCLX-α6, second helix (α6) of the central hairpin of BCL-xL]”, which “final increase of surface pressure πmax” value [1] is on record?
A: higher than the one of the BH3 peptides

Q: What about the “initial velocity of surface pressure increase Vi (affinity), in words” value [1] of the same sequence?
A: strong

Q: And the “cytochrome c release, in words” value [2, 7]?
A: release of large amounts of cytochrome c

Q: With “VPQDASTKKLSECEKRIGNELDSNMELQR [BAX-BH3m, BAX BH3 mutant harboring substitutions (L63E/D68N)]” as the sequence, how does the “cytochrome c release, in words” value (isolated mitochondria; even at 100 µM (data not shown)) read?
A: failed to induce cytochrome c release

Q: Which “concentration at which cytochrome c release starts” value (isolated mitochondria; BH3 peptides, Figure 7C) does the source give for “VPQDASTKKLSECLKRIGDELDSNMELQR [BAX-BH3, peptide corresponding to the BH3 domain of BAX]” here?
A: 25 µM

Q: For “WGRIVAFFSFGGALSVESVDK [BCLX-α5S, short peptide of helix α5 of BCL-xL]”, which “final increase of surface pressure πmax” value [1] is on record?
A: lowest increase of surface pressure

Q: And the “initial velocity of surface pressure increase Vi (affinity), in words” value [1]?
A: strong

Q: What about the “cytochrome c release, in words” value ([2]; all doses and times tested (2.5, 10 or 25 µM)) of the same sequence?
A: completely failed to release cytochrome c

Q: And the “effect” value (isolated mitochondria)?
A: lack of effect
